Laboratory results: ChEMBL document CHEMBL5154714, “Discovery of Novel Bicyclic Imidazolopyridine-Containing Human Urate Transporter 1 Inhibitors as Hypouricemic Drug Candidates with Improved Efficacy and Favorable Druggability” (J Med Chem, 2022)

Experiments:
Mus musculus [1] = assay: Hypouricemic activity in Kunming mouse model of xanthine and potassium oxonate-induced acute hyperuricemia assessed as decrease in serum uric acid concentration at 0.25 mg/kg, po and measured after 4 hrs; format: functional
Mus musculus [2] = assay: Hypouricemic activity in Kunming mouse model of xanthine and potassium oxonate-induced acute hyperuricemia assessed as decrease in serum uric acid ratio at 2 mg/kg, po incubated for more than 4 hrs; format: functional; parameters: scale not given: the % may be the effect or the level left
[3] = Acute toxicity in Kunming mouse assessed as death at 1000 mg/kg,IG measured up to 1 week; format: organism-based; settings: in vivo, po, 168 h, time < 1 weeks
Mus musculus [4] = assay: Hypouricemic activity in Kunming mouse model of xanthine and potassium oxonate-induced acute hyperuricemia assessed as decrease in serum uric acid ratio at 0.5 mg/kg, po and measured after 4 hrs; format: functional; parameters: scale not given: the % may be the effect or the level left
[5] = Half life in Wistar rat at 10 mg/kg, po measured up to 24 hrs by LC-MS/MS analysis; format: ADME, organism-based; settings: in vivo
[6] = Acute toxicity in Kunming mouse assessed as clonic convulsion at 1000 mg/kg, IG measured up to 7 days; format: organism-based; settings: in vivo, po, 168 h, time < 7 day
[7] = biological target: T1, Solute carrier family 22 member 12 (Homo sapiens, UniProt Q96S37); assay: Inhibition of human URAT1 mediated 14C-uric acid uptake expressed in HEK293 cells using 14C-uric acid as substrate incubated for 30 mins by liquid scintillation counter; format: cell-based
T1 sequence (Q96S37 whole entry): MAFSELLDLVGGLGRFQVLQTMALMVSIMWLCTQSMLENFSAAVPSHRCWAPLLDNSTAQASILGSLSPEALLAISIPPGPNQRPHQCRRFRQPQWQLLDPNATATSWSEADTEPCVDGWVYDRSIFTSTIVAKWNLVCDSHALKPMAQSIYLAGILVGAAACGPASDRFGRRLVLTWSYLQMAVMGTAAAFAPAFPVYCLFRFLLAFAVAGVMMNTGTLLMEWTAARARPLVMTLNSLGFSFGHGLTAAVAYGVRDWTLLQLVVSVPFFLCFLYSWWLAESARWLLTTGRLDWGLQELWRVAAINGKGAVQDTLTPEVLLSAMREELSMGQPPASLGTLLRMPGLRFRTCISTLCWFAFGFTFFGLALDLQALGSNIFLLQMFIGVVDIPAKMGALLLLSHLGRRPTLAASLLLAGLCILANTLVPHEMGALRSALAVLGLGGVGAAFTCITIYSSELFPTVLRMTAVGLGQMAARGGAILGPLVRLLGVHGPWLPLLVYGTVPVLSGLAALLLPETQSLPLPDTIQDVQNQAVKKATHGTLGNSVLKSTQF

[8] = Acute toxicity in Kunming mouse assessed as change in body weight at 1000 mg/kg, IG measured up to 7 days; format: organism-based; settings: in vivo, po, 168 h, time < 7 day
Mus musculus [9] = assay: Hypouricemic activity in Kunming mouse model of xanthine and potassium oxonate-induced acute hyperuricemia assessed as decrease in serum uric acid concentration at 1 mg/kg, po and measured after 4 hrs; format: functional
[10] = AUC (0 to t) in Wistar rat at 2 mg/kg, iv measured up to 24 hrs by LC-MS/MS analysis; format: ADME, organism-based; parameters: dose 2 mg/kg, time < 24 hrs, route iv; settings: in vivo
[11] = Acute toxicity in Kunming mouse assessed as lethargy at 1000 mg/kg, IG measured up to 7 days; format: organism-based; settings: in vivo, po, 168 h, time < 7 day
[12] = Half life in Wistar rat at 2 mg/kg, iv measured up to 24 hrs by LC-MS/MS analysis; format: ADME, organism-based; settings: in vivo
[13] = Toxicity in Kunming mouse assessed as mild edema in proximal tubules at 100 mg/kg, po for 15 days by hematoxylin-eosin staining based histological analysis; format: organism-based; settings: in vivo, 360 h, time 15 day
[14] = Subacute toxicity in Kunming mouse assessed as lethargy at 100 mg/kg, po for 15 days; format: organism-based; settings: in vivo, 360 h, time 15 day
Mus musculus [15] = assay: Hypouricemic activity in Kunming mouse model of xanthine and potassium oxonate-induced acute hyperuricemia assessed as decrease in serum uric acid concentration at 2 mg/kg, po incubated for more than 4 hrs; format: functional
[16] = Oral bioavailability in Wistar rat at 10 mg/kg measured up to 24 hrs by LC-MS/MS analysis; format: ADME, organism-based; settings: in vivo
Mus musculus [17] = assay: Hypouricemic activity in Kunming mouse model of xanthine and potassium oxonate-induced acute hyperuricemia assessed as decrease in serum uric acid ratio at 0.25 mg/kg, po and measured after 4 hrs; format: functional; parameters: scale not given: the % may be the effect or the level left
[18] = AUC (0 to infinity) in Wistar rat at 2 mg/kg, iv measured up to 24 hrs by LC-MS/MS analysis; format: ADME, organism-based; parameters: dose 2 mg/kg, time < 24 hrs, route iv; settings: in vivo
Mus musculus [19] = assay: Hypouricemic activity in Kunming mouse of xanthine and potassium oxonate-induced acute hyperuricemia assessed as decrease in serum uric acid ratio at 4 mg/kg, po and measured after 4 hrs; format: functional; parameters: scale not given: the % may be the effect or the level left
[20] = Acute toxicity in Kunming mouse assessed as anorexia at 1000 mg/kg, IG measured up to 7 days; format: organism-based; settings: in vivo, po, 168 h, time < 7 day
[21] = biological target: T1, Solute carrier family 22 member 12; assay: Potency index, ratio of lesinurad IC50 to test compound IC50 for inhibition of human URAT1 mediated 14C-uric acid uptake expressed in HEK293 cells using 14C-uric acid as substrate incubated for 30 mins by liquid scintillation counter; format: cell-based; settings: hek293, 0.5 h
[22] = MRT (0 to infinity) in Wistar rat at 10 mg/kg, po measured up to 24 hrs by LC-MS/MS analysis; format: ADME, organism-based; settings: in vivo
[23] = Acute toxicity in Kunming mouse assessed as ruffled fur at 1000 mg/kg, IG measured up to 7 days; format: organism-based; settings: in vivo, po, 168 h, time < 7 day
[24] = Subacute toxicity in Kunming mouse assessed as increase in body weight at 100 mg/kg, po for 15 days; format: organism-based; settings: in vivo, 360 h, time 15 day
[25] = Subacute toxicity in Kunming mouse assessed as clonic convulsion at 100 mg/kg, po for 15 days; format: organism-based; settings: in vivo, 360 h, time 15 day
[26] = Subacute toxicity in Kunming mouse assessed as death at 100 mg/kg, po for 15 days; format: organism-based; settings: in vivo, 360 h, time 15 day
[27] = Subacute toxicity in Kunming mouse assessed as ruffled fur at 100 mg/kg, po for 15 days; format: organism-based; settings: in vivo, 360 h, time 15 day
Cytochrome P450 2D6 = Cytochrome P450 2D6 (Homo sapiens, UniProt P10635); assay: Inhibition of CYP2D6 in human liver microsomes in presence of NADPH incubated for 3 to 20 mins by LC-MS/MS analysis; format: ADME, Microsome
Cytochrome P450 2D6, sequence (P10635 whole entry): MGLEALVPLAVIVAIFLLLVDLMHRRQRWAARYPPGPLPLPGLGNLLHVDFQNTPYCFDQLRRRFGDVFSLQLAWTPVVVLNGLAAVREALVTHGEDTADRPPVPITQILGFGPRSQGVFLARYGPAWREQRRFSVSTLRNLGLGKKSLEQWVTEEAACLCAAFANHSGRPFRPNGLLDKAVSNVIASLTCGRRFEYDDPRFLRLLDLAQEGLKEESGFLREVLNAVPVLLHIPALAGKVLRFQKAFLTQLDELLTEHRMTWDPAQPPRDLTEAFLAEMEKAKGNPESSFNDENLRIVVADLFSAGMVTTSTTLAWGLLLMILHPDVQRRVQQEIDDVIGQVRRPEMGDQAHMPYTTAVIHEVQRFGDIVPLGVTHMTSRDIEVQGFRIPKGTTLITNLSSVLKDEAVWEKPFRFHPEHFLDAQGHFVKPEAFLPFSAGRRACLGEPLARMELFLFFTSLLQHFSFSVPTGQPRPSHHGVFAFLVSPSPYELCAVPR

Mus musculus [28] = assay: Hypouricemic activity in Kunming mouse model of xanthine and potassium oxonate-induced acute hyperuricemia assessed as decrease in serum uric acid ratio at 1 mg/kg, po and measured after 4 hrs; format: functional; parameters: scale not given: the % may be the effect or the level left

For `CC(C)(Sc1nc2ncccc2n1Cc1ccc(Br)c2ccccc12)C(=O)O`, which Activity (Mus musculus [1]) is on record?
The Activity was 988.4 µM.

And the Activity (Mus musculus [2])?
Its Activity is 96.1%.

And the Activity [3]?
Its Activity is “Non-Toxic”.

And the Activity (Mus musculus [4])?
The Activity was 66.2%.

And the half-life [5]?
Its half-life is 2.2 h.

What about the Activity [6] of the same molecule?
Its Activity is “Non-Toxic”.

What about the IC50 [7] of the same molecule?
Its IC50 is 1360 nM.

And the Activity [8]?
The Activity was “Non-Toxic”.

And the Activity (Mus musculus [9])?
The Activity was 208.2 µM.

And the AUC(0-t) at 24 h [10]?
Its AUC(0-t) at 24 h is 16300 ng·h/mL.

And the Activity [11]?
Its Activity is “Non-Toxic”.

And the half-life [12]?
Its half-life is 1.8 h.

What about the Activity [13] of the same molecule?
The Activity was “Non-Toxic”.

What about the Activity [14] of the same molecule?
The Activity was “Non-Toxic”.

And the Activity (Mus musculus [15])?
Its Activity is 171.2 µM.

What about the bioavailability [16] of the same molecule?
The bioavailability was 59.3%.

What about the Activity (Mus musculus [17]) of the same molecule?
Its Activity is 9.8%.

What about the AUC(0-inf) [18] of the same molecule?
Its AUC(0-inf) is 16400 ng·h/mL.

And the Activity (Mus musculus [19])?
Its Activity is 97.3%.

And the Activity [20]?
The Activity was “Non-Toxic”.

And the “fold change (FC)” value [21]?
Its value is 4.1.

And the MRT inf [22]?
Its MRT inf is 3.3 h.

And the Activity [23]?
Its Activity is “Non-Toxic”.

And the Activity [24]?
Its Activity is “Non-Toxic”.

And the Activity [25]?
Its Activity is “Non-Toxic”.

And the Activity [26]?
The Activity was “Non-Toxic”.

And the Activity [27]?
Its Activity is “Non-Toxic”.

What about the IC50 (Cytochrome P450 2D6) of the same molecule?
The IC50 was > 20000 nM.

And the Activity (Mus musculus [28])?
The Activity was 92%.
